The results in this text go back to US8933089B2, “HIV inhibiting 5-amido substituted pyrimidines” (Janssen R & D Ireland, priority 2006, dated 2015).

For one series, the system named is HIV strain Y188L. The experiment in a line: Cellular anti-HIV assay in MT4 LTR-EGFP cells, mutant Y188L. Format: cell-based, HIV-1. To be noted: Human immunodeficiency virus 1, read-out: Y188L pEC50 (converted).
The next series deals with HIV strain K103N. Kind of series: Cellular anti-HIV assay in MT4 LTR-EGFP cells, mutant K103N. Format: cell-based, HIV-1. To be noted: Human immunodeficiency virus 1, read-out: K103N pEC50 (converted).
Series [1] has as its system HIV strain IIIB (wild type). Kind of series: Cellular anti-HIV assay in MT4 LTR-EGFP cells, strain IIIB (wild type); selectivity index versus cytotoxicity in mock-infected MT4 CMV-EGFP cells. Format: cell-based, HIV-1. To be noted: for EC50: Human immunodeficiency virus 1, 72 h, wild type HIV strain IIIB, MT4 LTR-EGFP cells, fluorescence, three days after infection, read-out: IIIB pEC50 (converted); for IIIB pSi: selectivity index = ratio of CC50 (mock-infected MT4 CMV-EGFP cells) to EC50 (IIIB), given as p value.

Another series has as its system HIV strain L100I + K103N. Kind of series: Cellular anti-HIV assay in MT4 LTR-EGFP cells, mutant L100I + K103N. Format: cell-based, HIV-1. The settings on record: Human immunodeficiency virus 1, 72 h, read-out: L100I + K103N pEC50 (converted).
The subject of the next series is HIV strain K103N + Y181C. The experiment in a line: Cellular anti-HIV assay in MT4 LTR-EGFP cells, mutant K103N + Y181C. Format: cell-based, HIV-1. To be noted: Human immunodeficiency virus 1, 72 h, read-out: K103N + Y181C pEC50 (converted).
For another series, the system named is HIV strain Y181C. The experiment in a line: Cellular anti-HIV assay in MT4 LTR-EGFP cells, mutant Y181C. Format: cell-based, HIV-1. The settings on record: Human immunodeficiency virus 1, read-out: Y181C pEC50 (converted).
Another series deals with HIV strain L100I. The experiment in a line: Cellular anti-HIV assay in MT4 LTR-EGFP cells, mutant L100I. Format: cell-based, HIV-1. To be noted: Human immunodeficiency virus 1, read-out: L100I pEC50 (converted).
The subject of the next series is HIV strain MDR. The experiment in a line: Cellular anti-HIV assay in MT4 LTR-EGFP cells, MDR strain. Format: cell-based, HIV-1. The settings on record: Human immunodeficiency virus 1, read-out: MDR pEC50 (converted).

The structures appear in SMILES notation.

`Cc1cc(/C=C/C#N)cc(C)c1Nc1nc(Nc2ccc(C#N)cc2)ncc1C(=O)N1CCOCC1`: the melting point (as a rule, the temperature of the solid-liquid transition) was over 250 °C.
Same read-out and setting: with `COc1ccccc1NC(=O)c1cnc(Nc2ccc(C#N)cc2)nc1Nc1c(C)cc(/C=C/C#N)cc1C` the figure was over 250 °C.
In the case of `Cc1cc(/C=C/C#N)cc(C)c1Nc1nc(Nc2ccc(C#N)cc2)ncc1C(=O)NCCO` [Compound 53], the melting point was over 250 °C. Further, in the series with HIV strain Y188L, the EC50 was 31.6 nM. Moreover, the EC50 in the series with HIV strain K103N was 6.31 nM. Also, in series [1], the EC50 is 3.16 nM and the “IIIB pSi” value was over 3.90. For the same compound, in the series with HIV strain L100I + K103N, the EC50 is 25.1 nM. Also, the EC50 in the series on HIV strain K103N + Y181C is 31.6 nM. The EC50 in the series with HIV strain Y181C is 20 nM. The EC50 in the series with HIV strain L100I was 5.01 nM. Besides, in the series with HIV strain MDR, the EC50 was 501 nM.
Consider `COCCNC(=O)c1cnc(Nc2ccc(C#N)cc2)nc1Nc1c(C)cc(/C=C/C#N)cc1C` [Compound 54], for which the melting point is over 250 °C. Also, the EC50 with HIV strain Y188L was 10 nM. Also, the EC50 in the series on HIV strain K103N is 2 nM. In [1], the EC50 is 2.51 nM and the “IIIB pSi” value was over 4.00. The EC50 with HIV strain L100I + K103N was 15.8 nM. Besides, the EC50 in the series on HIV strain K103N + Y181C was 12.6 nM. Also, in the series with HIV strain Y181C, the EC50 is 10 nM. The EC50 with HIV strain L100I is 3.98 nM. In addition, the EC50 with HIV strain MDR is 1000 nM.
`CCN(CCO)C(=O)c1cnc(Nc2ccc(C#N)cc2)nc1Nc1c(C)cc(/C=C/C#N)cc1C` [Compound 55] yielded a melting point of over 222 °C. In addition, the EC50 with HIV strain Y188L is 63.1 nM. Moreover, the EC50 with HIV strain K103N was 3.98 nM. Besides, in series [1], the EC50 was 1 nM and the “IIIB pSi” value amounted to 4.00. Moreover, in the series with HIV strain L100I + K103N, the EC50 was 79.4 nM. Besides, the EC50 with HIV strain K103N + Y181C was 100 nM. Moreover, the EC50 in the series on HIV strain Y181C is 20 nM. Further, in the series with HIV strain L100I, the EC50 is 15.8 nM. Moreover, the EC50 with HIV strain MDR was 2000 nM.
For the compound `COCCNC(=O)c1cnc(Nc2ccc(C#N)cc2)nc1Oc1c(C)cc(/C=C/C#N)cc1C` [Compound 60], the EC50 in the series on HIV strain Y188L is 158 nM; in the series on HIV strain K103N, 12.6 nM; in series [1] it was 3.16 nM; with HIV strain L100I + K103N, 316 nM; in the series on HIV strain K103N + Y181C, 63.1 nM; in the series with HIV strain Y181C, 31.6 nM. The EC50 in the series on HIV strain L100I was 79.4 nM; in the series on HIV strain MDR, 10000 nM. Moreover, the “IIIB pSi” value in series [1] worked out at 3.50.
Take `Cc1cc(/C=C/C#N)cc(C)c1Oc1nc(Nc2ccc(C#N)cc2)ncc1C(=O)NCC#N` [Compound 61]: the EC50 is 100 nM in the series with HIV strain Y188L; 3.98 nM in the series with HIV strain K103N; 3.16 nM in [1]; 50.1 nM in the series with HIV strain L100I + K103N; 25.1 nM in the series on HIV strain K103N + Y181C; 20 nM in the series with HIV strain Y181C. The EC50 in the series with HIV strain L100I is 20 nM; with HIV strain MDR, 3160 nM. Also, the “IIIB pSi” value in series [1] is over 3.90.
Regarding `CONC(=O)c1cnc(Nc2ccc(C#N)cc2)nc1Oc1c(C)cc(/C=C/C#N)cc1C` [Compound 62], the EC50 with HIV strain Y188L is 39.8 nM; in the series on HIV strain K103N, 2.51 nM; in series [1], 1.58 nM; in the series on HIV strain L100I + K103N, 39.8 nM; with HIV strain K103N + Y181C, 31.6 nM; in the series on HIV strain Y181C, 20 nM. Besides, the EC50 in the series with HIV strain L100I is 5.01 nM; with HIV strain MDR, 3160 nM. In addition, in [1], the “IIIB pSi” value amounted to 4.00.
